Laboratory results from ChEMBL document CHEMBL1201862, “PubChem BioAssay data set” (2004).
Active and inactive are the calls of the source.

How the values were obtained:
[1] = inhibitors of SNCA 5'UTR-driven reporter translation, confirmation, H4 neuroglioma cells, luminescence (AID 1988); format: functional, cell-based
[2] = molecular target: T1, Nuclear receptor subfamily 0 group B member 1 (Homo sapiens, UniProt P51843); format: functional, cell-based;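 also: HEK293T cells transfected with SF-1 and DAX-1 plus StAR promoter luciferase reporter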
T1 sequence (P51843 whole entry): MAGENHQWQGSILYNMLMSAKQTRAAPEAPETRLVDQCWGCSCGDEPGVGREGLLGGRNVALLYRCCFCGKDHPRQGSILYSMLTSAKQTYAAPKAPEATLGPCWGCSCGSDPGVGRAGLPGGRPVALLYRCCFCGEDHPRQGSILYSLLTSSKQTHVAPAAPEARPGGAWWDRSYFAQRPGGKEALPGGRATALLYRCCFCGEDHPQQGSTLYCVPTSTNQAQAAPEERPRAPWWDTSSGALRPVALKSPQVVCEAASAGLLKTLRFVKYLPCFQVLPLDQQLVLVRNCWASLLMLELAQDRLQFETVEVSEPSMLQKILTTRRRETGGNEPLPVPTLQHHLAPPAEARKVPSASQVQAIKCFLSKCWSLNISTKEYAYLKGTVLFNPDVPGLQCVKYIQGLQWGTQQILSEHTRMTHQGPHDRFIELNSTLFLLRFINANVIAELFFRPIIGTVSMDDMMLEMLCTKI

[3] = Luminescence Cell-Based Dose Response HTS to Identify Inhibitors of 5'UTR Stem-Loop Driven Prion Protein mRNA Translation in H4 Neuroglioblastoma Cells. [Related pubchem assays: 1827 (Project Summary), 1813 (Primary HTS)]; format: functional
cells [4] = format: functional, cell-based
[5] = molecular target: T2, Aryl hydrocarbon receptor (Homo sapiens, UniProt P35869); conditions: Potency;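 also: confirmatory quantitative high-throughput screen measuring activation of the AhR signaling pathway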
T2 sequence (P35869 whole entry): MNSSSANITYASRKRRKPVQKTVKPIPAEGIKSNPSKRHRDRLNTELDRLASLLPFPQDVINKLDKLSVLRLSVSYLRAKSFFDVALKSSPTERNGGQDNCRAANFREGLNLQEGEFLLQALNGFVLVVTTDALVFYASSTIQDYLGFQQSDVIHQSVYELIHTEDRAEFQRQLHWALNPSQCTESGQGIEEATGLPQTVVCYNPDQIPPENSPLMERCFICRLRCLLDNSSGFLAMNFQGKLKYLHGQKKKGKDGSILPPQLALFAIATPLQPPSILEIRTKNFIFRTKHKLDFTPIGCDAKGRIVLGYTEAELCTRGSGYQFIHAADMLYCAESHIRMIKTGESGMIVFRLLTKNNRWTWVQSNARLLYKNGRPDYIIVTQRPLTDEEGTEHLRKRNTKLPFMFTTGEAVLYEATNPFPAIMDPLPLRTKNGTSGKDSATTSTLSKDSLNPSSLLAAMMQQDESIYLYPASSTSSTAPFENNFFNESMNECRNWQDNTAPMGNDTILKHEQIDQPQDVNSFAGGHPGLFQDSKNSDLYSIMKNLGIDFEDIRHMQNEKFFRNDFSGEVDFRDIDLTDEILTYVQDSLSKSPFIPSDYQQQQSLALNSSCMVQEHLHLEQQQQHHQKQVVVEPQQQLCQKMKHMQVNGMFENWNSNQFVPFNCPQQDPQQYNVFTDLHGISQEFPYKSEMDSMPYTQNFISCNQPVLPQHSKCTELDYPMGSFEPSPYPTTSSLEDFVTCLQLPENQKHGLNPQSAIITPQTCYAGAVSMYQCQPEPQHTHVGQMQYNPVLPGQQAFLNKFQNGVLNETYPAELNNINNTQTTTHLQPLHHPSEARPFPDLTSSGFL

[6] = molecular target: T3, DNA repair protein RAD52 homolog (Homo sapiens, UniProt P43351); format: functional, biochemical
T3 sequence (P43351 whole entry): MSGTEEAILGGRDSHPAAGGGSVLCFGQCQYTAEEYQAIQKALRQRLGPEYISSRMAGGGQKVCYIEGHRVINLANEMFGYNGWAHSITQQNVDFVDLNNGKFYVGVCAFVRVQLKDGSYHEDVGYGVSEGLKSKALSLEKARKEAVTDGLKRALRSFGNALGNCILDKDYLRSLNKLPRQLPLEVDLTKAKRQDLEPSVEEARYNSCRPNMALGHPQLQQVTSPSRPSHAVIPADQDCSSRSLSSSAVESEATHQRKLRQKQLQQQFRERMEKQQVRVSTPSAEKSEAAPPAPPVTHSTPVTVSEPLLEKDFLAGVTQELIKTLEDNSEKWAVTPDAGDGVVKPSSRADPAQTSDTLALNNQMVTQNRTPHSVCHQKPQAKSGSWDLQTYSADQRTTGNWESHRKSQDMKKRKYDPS

[7] = microbe, parasite or virus in culture; format: functional; conditions: Mycobacterium tuberculosis
[8] = molecular target: T4, DNA repair and recombination protein RAD54-like (Homo sapiens, UniProt Q92698); experiment: inhibitors of human RAD54 branch migration, confirmation, biochemical, fluorescence, cherry-picked samples, dose series (AID 651657); format: functional
T4 sequence (Q92698 whole entry): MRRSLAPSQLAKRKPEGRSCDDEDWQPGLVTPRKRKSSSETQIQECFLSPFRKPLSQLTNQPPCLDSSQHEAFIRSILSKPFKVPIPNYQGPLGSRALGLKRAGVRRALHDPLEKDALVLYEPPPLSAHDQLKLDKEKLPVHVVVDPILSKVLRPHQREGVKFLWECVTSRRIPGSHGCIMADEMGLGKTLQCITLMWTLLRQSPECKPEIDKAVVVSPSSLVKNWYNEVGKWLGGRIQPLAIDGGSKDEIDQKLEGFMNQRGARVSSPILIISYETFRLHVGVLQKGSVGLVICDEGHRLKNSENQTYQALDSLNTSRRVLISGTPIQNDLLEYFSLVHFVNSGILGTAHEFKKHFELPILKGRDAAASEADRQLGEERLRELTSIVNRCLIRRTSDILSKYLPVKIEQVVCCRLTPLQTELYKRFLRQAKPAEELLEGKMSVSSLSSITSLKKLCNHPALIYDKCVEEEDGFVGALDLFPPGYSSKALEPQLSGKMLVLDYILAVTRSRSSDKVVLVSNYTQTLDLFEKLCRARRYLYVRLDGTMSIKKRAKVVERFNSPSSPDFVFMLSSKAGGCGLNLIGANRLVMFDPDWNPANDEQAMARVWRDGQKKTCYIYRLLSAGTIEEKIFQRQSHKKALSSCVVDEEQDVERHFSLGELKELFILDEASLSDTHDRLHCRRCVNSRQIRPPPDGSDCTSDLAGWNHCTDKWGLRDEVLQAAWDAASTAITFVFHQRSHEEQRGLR

[9] = Vero E6 cell cytotoxicity, dose response, cytotoxicity control for non-replicating M. tuberculosis project, secondary assay (AID 492998); format: functional, VeroE6; conditions: Vero C1008
[10] = molecular target: SWI/SNF-related matrix-associated actin-dependent regulator of chromatin subfamily A member 2 (Homo sapiens, UniProt P51531); experiment: Luminescence-based cell-based high throughput dose response assay to identify activators of the function of SWI/SNF related, matrix associated, actin dependent regulator of chromatin, subfamily a, member 2 (SMARCA2, BRM).; format: functional
Chain of SWI/SNF-related matrix-associated actin-dependent regulator of chromatin subfamily A member 2 (P51531 whole entry): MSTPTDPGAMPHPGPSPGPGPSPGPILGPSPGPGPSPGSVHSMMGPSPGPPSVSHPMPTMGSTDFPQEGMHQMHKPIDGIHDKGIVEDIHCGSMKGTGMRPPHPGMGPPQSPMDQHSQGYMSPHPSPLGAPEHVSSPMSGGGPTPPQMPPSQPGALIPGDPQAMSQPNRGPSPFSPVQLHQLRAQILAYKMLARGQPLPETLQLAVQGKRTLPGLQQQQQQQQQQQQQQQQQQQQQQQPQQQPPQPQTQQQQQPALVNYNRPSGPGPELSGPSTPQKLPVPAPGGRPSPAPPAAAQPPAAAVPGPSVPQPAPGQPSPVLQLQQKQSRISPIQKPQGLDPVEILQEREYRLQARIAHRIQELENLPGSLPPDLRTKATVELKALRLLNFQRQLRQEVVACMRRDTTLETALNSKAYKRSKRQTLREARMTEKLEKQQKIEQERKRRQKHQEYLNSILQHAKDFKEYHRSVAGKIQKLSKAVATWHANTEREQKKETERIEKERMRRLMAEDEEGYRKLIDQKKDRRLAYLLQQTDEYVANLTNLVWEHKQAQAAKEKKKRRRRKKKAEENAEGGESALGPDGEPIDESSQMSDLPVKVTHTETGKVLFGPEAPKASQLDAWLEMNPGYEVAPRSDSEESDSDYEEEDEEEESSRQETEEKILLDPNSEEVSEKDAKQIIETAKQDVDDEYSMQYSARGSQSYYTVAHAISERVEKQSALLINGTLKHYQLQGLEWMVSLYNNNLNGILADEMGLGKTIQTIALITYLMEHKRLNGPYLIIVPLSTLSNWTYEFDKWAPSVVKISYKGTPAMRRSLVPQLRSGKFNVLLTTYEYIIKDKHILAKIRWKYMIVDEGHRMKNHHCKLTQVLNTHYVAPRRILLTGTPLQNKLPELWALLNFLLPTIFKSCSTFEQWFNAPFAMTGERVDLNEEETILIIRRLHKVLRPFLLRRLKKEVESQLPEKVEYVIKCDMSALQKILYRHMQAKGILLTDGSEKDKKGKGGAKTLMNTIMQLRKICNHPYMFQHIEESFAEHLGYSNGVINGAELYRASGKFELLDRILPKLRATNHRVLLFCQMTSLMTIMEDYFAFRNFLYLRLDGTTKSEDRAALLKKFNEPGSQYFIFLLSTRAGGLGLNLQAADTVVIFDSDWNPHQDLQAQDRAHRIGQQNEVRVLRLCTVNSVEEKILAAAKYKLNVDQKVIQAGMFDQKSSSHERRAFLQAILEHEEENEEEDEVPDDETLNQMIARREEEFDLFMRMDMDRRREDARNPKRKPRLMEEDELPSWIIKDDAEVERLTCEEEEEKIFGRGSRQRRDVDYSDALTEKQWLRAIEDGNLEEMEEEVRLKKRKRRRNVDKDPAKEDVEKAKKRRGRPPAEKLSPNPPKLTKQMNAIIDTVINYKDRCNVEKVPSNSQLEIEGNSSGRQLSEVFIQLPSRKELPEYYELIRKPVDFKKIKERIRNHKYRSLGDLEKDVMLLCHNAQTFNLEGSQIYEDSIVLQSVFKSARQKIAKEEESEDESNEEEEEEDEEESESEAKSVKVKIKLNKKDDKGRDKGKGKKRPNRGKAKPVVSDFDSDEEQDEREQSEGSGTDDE

[11] = THP-1 cell cytotoxicity, dose response, cytotoxicity control for non-replicating M. tuberculosis project (AID 489025); format: functional
[12] = Counterscreen for activators of the function of SWI/SNF related, matrix associated, actin dependent regulator of chromatin, subfamily a, member 2 (SMARCA2, BRM): Luminescence-based cell-based high throughput dose response assay to identify non-selective compounds using the VP16 reporter assay.; format: functional
[13] = molecular target: DNA (cytosine-5)-methyltransferase 1 (Homo sapiens, UniProt P26358); experiment: DNMT1 methyltransferase inhibitors, confirmation, biochemical, fluorescent molecular beacon (AID 602386); format: functional
Chain of DNA (cytosine-5)-methyltransferase 1 (P26358 whole entry): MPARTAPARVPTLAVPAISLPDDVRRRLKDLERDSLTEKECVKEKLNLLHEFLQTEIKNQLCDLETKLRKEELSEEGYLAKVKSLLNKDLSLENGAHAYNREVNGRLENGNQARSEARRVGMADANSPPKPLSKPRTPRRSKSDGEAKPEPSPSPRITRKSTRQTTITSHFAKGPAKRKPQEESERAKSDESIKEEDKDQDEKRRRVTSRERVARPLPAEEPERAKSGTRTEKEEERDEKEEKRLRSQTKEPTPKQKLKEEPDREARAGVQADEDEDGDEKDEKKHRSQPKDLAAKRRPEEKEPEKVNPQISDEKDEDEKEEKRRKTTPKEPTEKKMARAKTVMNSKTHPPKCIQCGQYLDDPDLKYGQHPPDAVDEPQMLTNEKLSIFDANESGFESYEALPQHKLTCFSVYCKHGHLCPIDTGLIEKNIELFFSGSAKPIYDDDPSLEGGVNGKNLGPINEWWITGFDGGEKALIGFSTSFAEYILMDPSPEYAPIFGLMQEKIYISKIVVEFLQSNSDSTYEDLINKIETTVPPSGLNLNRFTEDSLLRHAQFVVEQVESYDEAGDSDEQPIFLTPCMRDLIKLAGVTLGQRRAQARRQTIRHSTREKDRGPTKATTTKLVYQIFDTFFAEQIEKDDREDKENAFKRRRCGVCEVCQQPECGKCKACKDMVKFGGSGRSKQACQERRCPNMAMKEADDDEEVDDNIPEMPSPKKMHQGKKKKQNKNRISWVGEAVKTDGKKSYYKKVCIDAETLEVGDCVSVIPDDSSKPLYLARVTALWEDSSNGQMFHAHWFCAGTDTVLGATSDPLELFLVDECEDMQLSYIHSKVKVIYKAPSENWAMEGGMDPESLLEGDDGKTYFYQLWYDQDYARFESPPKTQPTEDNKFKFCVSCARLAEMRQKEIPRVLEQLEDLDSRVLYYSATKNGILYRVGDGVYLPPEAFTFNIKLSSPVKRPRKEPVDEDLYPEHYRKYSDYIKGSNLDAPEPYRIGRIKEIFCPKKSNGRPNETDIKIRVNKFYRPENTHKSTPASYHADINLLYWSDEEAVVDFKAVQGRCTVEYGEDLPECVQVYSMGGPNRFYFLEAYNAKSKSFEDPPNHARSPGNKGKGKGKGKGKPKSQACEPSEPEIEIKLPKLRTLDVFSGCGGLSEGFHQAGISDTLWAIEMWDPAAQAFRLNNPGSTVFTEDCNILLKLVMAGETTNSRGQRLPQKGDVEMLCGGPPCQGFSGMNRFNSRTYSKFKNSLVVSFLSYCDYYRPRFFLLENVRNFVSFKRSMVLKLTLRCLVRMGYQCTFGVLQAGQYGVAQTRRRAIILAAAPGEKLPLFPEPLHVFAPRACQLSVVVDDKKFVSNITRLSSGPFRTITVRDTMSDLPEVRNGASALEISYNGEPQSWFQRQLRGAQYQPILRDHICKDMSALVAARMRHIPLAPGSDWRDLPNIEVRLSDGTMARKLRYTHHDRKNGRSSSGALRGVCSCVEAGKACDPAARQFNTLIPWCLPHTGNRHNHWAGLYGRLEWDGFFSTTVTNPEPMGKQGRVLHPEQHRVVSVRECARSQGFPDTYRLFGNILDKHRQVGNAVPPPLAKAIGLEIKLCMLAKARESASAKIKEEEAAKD

cells [14] = format: functional
[15] = inhibitors of firefly luciferase expression or activity, dose response, H4 neuroglioma cells, luminescence (AID 1990); format: functional, cell-based
Paired box protein Pax-8 = Paired box protein Pax-8 (Homo sapiens, UniProt Q06710); experiment: inhibitors of PAX8-driven TPO luciferase reporter, dose response, RMG-I cells, cherry-pick (AID 687027); format: functional, cell-based;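 also: luciferase reporter driven by Pax8 target thyroperoxidase promoter measured by SteadyGlo luminescence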
Chain of Paired box protein Pax-8 (Q06710 whole entry): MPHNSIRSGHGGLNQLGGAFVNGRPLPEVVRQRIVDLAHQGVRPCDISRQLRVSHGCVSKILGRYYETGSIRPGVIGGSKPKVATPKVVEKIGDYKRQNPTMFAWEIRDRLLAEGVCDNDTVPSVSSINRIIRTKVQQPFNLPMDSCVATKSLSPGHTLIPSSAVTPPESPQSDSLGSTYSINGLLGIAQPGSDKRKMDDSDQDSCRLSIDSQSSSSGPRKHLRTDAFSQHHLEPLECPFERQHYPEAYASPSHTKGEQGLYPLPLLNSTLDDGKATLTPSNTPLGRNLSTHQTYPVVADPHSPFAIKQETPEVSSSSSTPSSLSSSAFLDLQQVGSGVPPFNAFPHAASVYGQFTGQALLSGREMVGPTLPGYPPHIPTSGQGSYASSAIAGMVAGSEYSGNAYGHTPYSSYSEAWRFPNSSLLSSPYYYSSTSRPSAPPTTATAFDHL

[16] = cytotoxicity in HEK-293T cells, dose response, cytotoxicity control for TCR NF-kB inhibitor project, luminescence, T-cell screen hits (AID 489026); format: functional, cell-based;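 also: cells exposed to compound about 14 hours before the viability readout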
[17] = molecular target: T5, Microphthalmia-associated transcription factor (Homo sapiens, UniProt O75030); experiment: TRPM1 promoter luciferase signal decrease, dose response, MITF inhibitor project, cell-based, SK-MEL-5, cherry-picked, set 3 (AID 493073); format: functional
T5 sequence (O75030 whole entry): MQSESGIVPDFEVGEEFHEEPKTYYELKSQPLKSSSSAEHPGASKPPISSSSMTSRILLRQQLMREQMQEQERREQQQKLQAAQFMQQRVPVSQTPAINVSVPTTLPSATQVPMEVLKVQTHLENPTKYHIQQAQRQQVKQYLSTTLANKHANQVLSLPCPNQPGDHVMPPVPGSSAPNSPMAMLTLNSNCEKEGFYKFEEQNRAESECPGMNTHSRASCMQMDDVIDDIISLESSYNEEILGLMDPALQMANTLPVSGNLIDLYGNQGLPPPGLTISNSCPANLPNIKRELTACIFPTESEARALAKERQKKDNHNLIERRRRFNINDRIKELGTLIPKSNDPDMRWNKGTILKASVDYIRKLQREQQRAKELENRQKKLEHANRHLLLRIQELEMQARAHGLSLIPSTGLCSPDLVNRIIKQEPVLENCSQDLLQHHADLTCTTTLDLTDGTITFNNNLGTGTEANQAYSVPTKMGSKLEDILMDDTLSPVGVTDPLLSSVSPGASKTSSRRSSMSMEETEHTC

[18] = molecular target: T6, Carboxy-terminal domain RNA polymerase II polypeptide A small phosphatase 1 (Homo sapiens, UniProt Q9GZU7); experiment: inhibitors of CTDSP1, concentration-response testing, biochemical assay, absorbance-based, actives from ultra-high-throughput screening (AID 540297); format: functional
T6 sequence (Q9GZU7 whole entry): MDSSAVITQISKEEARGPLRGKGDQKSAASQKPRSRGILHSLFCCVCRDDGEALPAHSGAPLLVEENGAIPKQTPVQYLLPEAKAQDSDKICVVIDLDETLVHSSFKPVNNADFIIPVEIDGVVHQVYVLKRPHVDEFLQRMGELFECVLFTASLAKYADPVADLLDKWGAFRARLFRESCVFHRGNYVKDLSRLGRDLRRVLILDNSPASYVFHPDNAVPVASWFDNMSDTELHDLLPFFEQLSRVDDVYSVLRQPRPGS

Albumin = Albumin (Bos taurus, UniProt P02769); experiment: Counterscreen for inhibitors of T-cell receptor (TCR)-CD3 interaction: Fluorescence-based biochemical high throughput dose response assay to identify inhibitors of T-cell receptor (TCR)-CD3 interaction using a TAMRA-labeled BSA probe.; format: functional
Chain of Albumin (P02769 whole entry): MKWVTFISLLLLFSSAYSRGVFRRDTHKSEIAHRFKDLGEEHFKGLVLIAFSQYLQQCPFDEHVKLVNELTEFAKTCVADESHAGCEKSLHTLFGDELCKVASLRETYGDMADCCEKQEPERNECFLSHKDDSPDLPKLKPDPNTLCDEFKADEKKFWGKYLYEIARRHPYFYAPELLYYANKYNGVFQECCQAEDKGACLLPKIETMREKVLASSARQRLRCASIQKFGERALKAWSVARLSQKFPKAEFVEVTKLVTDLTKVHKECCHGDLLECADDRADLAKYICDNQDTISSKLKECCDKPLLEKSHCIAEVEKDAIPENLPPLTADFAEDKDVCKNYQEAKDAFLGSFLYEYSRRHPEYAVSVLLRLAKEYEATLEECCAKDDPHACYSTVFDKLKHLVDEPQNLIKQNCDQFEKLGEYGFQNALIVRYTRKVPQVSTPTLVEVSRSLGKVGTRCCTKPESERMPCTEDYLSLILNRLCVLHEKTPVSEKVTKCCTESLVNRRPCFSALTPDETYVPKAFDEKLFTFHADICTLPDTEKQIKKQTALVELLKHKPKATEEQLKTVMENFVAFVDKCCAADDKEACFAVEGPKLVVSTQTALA

[19] = molecular target: FAD-linked sulfhydryl oxidase ALR (Homo sapiens, UniProt P55789); experiment: inhibitors of human ALR sulfhydryl oxidase, dose response, biochemical, H2O2 detection, luminescence, cherry-pick (AID 493248)
Chain of FAD-linked sulfhydryl oxidase ALR (P55789 whole entry): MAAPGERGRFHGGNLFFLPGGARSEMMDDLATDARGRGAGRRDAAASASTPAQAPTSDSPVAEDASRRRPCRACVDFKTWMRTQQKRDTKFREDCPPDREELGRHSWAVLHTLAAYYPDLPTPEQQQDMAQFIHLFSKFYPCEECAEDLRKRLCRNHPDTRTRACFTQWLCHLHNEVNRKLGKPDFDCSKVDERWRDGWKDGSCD

O=C(/C=C\Nc1cccc(F)c1)c1ccc2c(c1)OCO2
EC50 [1]: 7.2 µM (active)
IC50 [2]: > 0.0926 µM (active)
EC50 [3]: 7.42 µM (active)
IC50 (cells [4]): > 67.5 µM (inactive)

N#Cc1ccccc1 [BENZONITRILE]
AC50 [5]: 7.08 µM (inconclusive)

CCOc1cccc2sc(N(CCN(C)C)C(=O)c3cc4ccccc4cc3OC)nc12
AC50 [6]: 12.5 µM (active)

CN(C)CCOc1nc(-c2ccccc2)nc2c1oc1ccccc12
CC50 [7]: 12.5 µM (active)
AC50 [8]: 4.97 µM (active)
CC50 [9]: > 20 µM (active)
EC50 [10]: > 10.1 µM (inactive)
CC50 [11]: 34 µM (active)
EC50 [12]: > 91.2 µM (inactive)
IC50 [13]: > 99 µM (inactive)
IC50 (cells [14]): 10.7 µM (active)

CCOc1ccc(N(CC(=O)Nc2ccccc2OCC)S(=O)(=O)c2c(C)noc2C)cc1
EC50 [15]: 2.32 µM (active)
EC50 [1]: 0.567 µM (active)
IC50 [2]: > 67.5 µM (inactive)
EC50 [3]: 0.495 µM (active)
IC50 (cells [4]): > 67.5 µM (inactive)

COCc1cc(O)n2nc(-c3ccc(C)cc3)cc2n1
EC50 [10]: > 91.2 µM (inactive)
EC50 [12]: > 91.2 µM (inactive)

COc1ccc(COC(=O)c2cc([N+](=O)[O-])ccc2N2CCOCC2)cc1F
AC50 (Paired box protein Pax-8): < 0.26 µM (active)
IC50 [2]: > 0.278 µM (active)
IC50 (cells [4]): > 67.5 µM (inactive)
IC50 [16]: > 80 µM (inactive)
AC50 [17]: 0.023 µM (active)

C=C1c2ccccc2NC(=O)N1c1ccc(OC)cc1
EC50 [10]: > 91.1 µM (inactive)
EC50 [12]: > 91.1 µM (inactive)

Cc1ccccc1NC(=O)CSc1ccsc1[N+](=O)[O-]
IC50 [18]: 2.3 µM (active)
IC50 [13]: 7.7 µM (active)

Cc1cccc(N2C(=O)/C(=C\NNC(=O)c3ccccc3Cl)c3ccccc3C2=O)n1
IC50 (Albumin): > 94.1 µM (inactive)
AC50 [19]: 9.36 µM (active)

NCCCNC(=S)NCCCN(Cc1ccc(Cl)cc1)c1ccc(Br)cn1
AC50 [6]: 20.2 µM (active)
